In patent EP1140895B1, “THIOPYRAN COMPOUNDS AS INHIBITORS OF MMP” (FUJISAWA PHARMACEUTICAL CO., LTD., priority 1999, dated 2000):

Biological target: T1, human MMP-13 (Homo sapiens, UniProt P45452)
T1 construct: truncated form of human recombinant MMP-13; purchased Chondrex, USA
Assay: Inhibitory activity of human MMP-13
Type: biochemical
Conditions: commercial kit, truncated form of human recombinant MMP-13, fluorogenic peptide substrate, 1 hour at 35°C
Description: The inhibitory potential of test compounds against human MMP-13 were assayed by using commercial kit (Chondrex, USA) contained truncated form of human recombinant MMP-13 and fluorogenic peptide substrate. Activity of human MMP-13 was determined by monitoring the degradation of fluorogenic peptide substrate after incubation for 1 hour at 35°C and estimated by measuring the fluorescence intensity of degraded peptide substrate at 495 nm (excitation) and 520 nm (emission).
Inhibitory activity of human MMP-13 as mentioned above.

With `O=C(CC1(c2ccc(Oc3ccc(Cl)cc3)cc2)CCCCS1(=O)=O)NO` (single isomer, unassigned) [Example 15, (R or S)-(-)-2-[4-(4-chlorophenoxy)phenyl]-3,4,5,6-tetrahydro-N-hydroxy-2H-thiopyran-2-acetamide 1,1-dioxide] the IC50 was 2.2 nM.
